Here are results for 7 compounds from US20060069132A1, “Azolecarboxamide herbicides” (priority 2004, published 2006).

The test system of assay [1] is large crabgrass. Nature of the assay: Test A pre-/postemergence herbicide test. Format: in vivo, Digitaria sanguinalis. Summed up: (§1)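 Visual injury scores on a 0–100 scale (100 = complete control) taken about ten days post-treatment in greenhouse against untreated controls; dash means no result. Treatments: preemergence soil spray and postemergence spray to runoff on one- to two-leaf plants 2 to 10 cm tall, surfactant-containing formulation.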

The test system of assay [2] is velvetleaf. Nature of the assay: Test A pre-/postemergence herbicide test. Format: in vivo, Abutilon theophrasti. In outline: as §1
For assay [3], the system named is ducksalad. Briefly: Test C flooded paddy test. Format: in vivo, Heteranthera limosa. Particulars: for Plant response rating, Ducksalad: visual rating after 12 to 14 days.
Assay [4] relates to barnyardgrass. Nature of the assay: Test C flooded paddy test. Format: in vivo, Echinochloa crus-galli. Particulars: for Plant response rating, Barnyardgrass: visual rating after 12 to 14 days. In outline: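 After a postemergence application at 1 to 4 leaves (plants 2–18 cm high), or at 2 leaves for barnyardgrass in flooded paddy, plants stayed in the greenhouse for 12 to 14 days. Damage was then judged visually relative to control plants, with 100 indicating complete control.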

For assay [5], the system named is giant foxtail. Briefly: Test A pre-/postemergence herbicide test. Format: in vivo, Setaria faberi. In outline: as §1
Setting [6] is: Postemergence, 500 g ai/ha, 0 to 100 scale, 0 no effect, 100 complete control.
Setting [7] is: Postemergence, 2000 g ai/ha, 0 to 100 scale, 0 no effect, 100 complete control.
Where [8] appears, read: Preemergence, 2000 g ai/ha, visual rating, 0 to 100 scale (0 no effect, 100 complete control).
Setting [9] is: preemergence, 500 g ai/ha, visual injury, 0 to 100 scale (0 no effect, 100 complete control).
Where [10] appears, read: 125 g ai/ha, scale 0 to 100 (0 no effect, 100 complete control).
Where [11] appears, read: 250 g ai/ha, scale of 0 to 100, 0 is no effect, 100 is complete control.
Setting [12] is: 500 g ai/ha, scale 0 to 100 (0 no effect, 100 complete control).
[13] abbreviates: 62 g ai/ha, scale 0 to 100 (0 no effect, 100 complete control).
Setting [14] is: Preemergence, 500 g ai/ha, visual rating, 0 to 100 scale (0 no effect, 100 complete control).
Setting [15] is: Preemergence, 2000 g ai/ha, 0 to 100 scale, 0 no effect, 100 complete control.
The mark [16] stands for this setting: 125 g ai/ha, scale of 0 to 100, 0 is no effect, 100 is complete control.
[17] abbreviates: 250 g ai/ha, scale 0 to 100 (0 no effect, 100 complete control).

`CCn1nc(C(C)(C)C)cc1C(=O)Nc1nc(C(=O)N2CC=CC2)ccc1F` [Compound 281]: the “Crabgrass, Large plant response rating” value in assay [1] (setting [6]) worked out at 5; in assay [1] (setting [8]), 65; in assay [1] (setting [9]), 20. Besides, the “Plant response rating, Crabgrass, Large” value in assay [1] (setting [7]) is recorded as 10. Further, the “Velvetleaf plant response rating” value in assay [2] (setting [6]) was determined as 35; in assay [2] (setting [8]), 35; in assay [2] (setting [9]), 10. Further, the “Plant response rating, Velvetleaf” value in assay [2] (setting [7]) is 40. Moreover, the “Ducksalad plant response rating” value in assay [3] (62 g ai/ha, scale 0 to 100) amounted to 0; in assay [3] (setting [10]), 0; in assay [3] (setting [11]), 70. For the same compound, the “Plant response rating, Ducksalad” value in assay [3] (setting [12]) was 85. The entries for the “Barnyardgrass plant response rating” value in assay [4] (setting [13]), in assay [4] (setting [10]) and in assay [4] (setting [11]) were 0, 20 and 30, respectively. The “Plant response rating, Barnyardgrass” value in assay [4] (setting [12]) was 65. Moreover, the “Foxtail, Giant plant response rating” value was determined as 0 in assay [5] (setting [6]), 75 in assay [5] (setting [8]) and 60 in assay [5] (setting [9]). Besides, the “Plant response rating, Foxtail, Giant” value in assay [5] (setting [7]) amounted to 25.

Turning to `CCNC(=O)c1ccc(F)c(NC(=O)c2cc(C(C)(C)C)nn2CC)n1` [Compound 278], the entries for the “Crabgrass, Large plant response rating” value in assay [1] (setting [6]), in assay [1] (setting [8]) and in assay [1] (setting [9]) were 10, 60 and 25, respectively. In addition, the “Plant response rating, Crabgrass, Large” value in assay [1] (setting [7]) was determined as 5. The “Velvetleaf plant response rating” value in assay [2] (setting [6]) worked out at 20; in assay [2] (setting [8]), 35; in assay [2] (setting [9]), 20. Moreover, the “Plant response rating, Velvetleaf” value in assay [2] (setting [7]) is given as 25. Besides, the “Ducksalad plant response rating” value in assay [3] (62 g ai/ha, scale 0 to 100) was determined as 0; in assay [3] (setting [10]), 0; in assay [3] (setting [11]), 0. Besides, in assay [3] (setting [12]), the “Plant response rating, Ducksalad” value was found to be 20. Further, the “Barnyardgrass plant response rating” value in assay [4] (setting [13]), in assay [4] (setting [10]) and in assay [4] (setting [11]) was 0 each time. For the same compound, in assay [4] (setting [12]), the “Plant response rating, Barnyardgrass” value is 25. The “Foxtail, Giant plant response rating” value in assay [5] (setting [6]) is reported as 5; in assay [5] (setting [8]) it was 85; in assay [5] (setting [9]), 60. Further, the “Plant response rating, Foxtail, Giant” value in assay [5] (setting [7]) is listed as 15.

For the compound `C#CCNC(=O)c1cc(NC(=O)c2cc(C(C)(C)C)nn2CC)ccn1` [Compound 283], the “Crabgrass, Large plant response rating” value is given as 10 in assay [1] (setting [6]), 90 in assay [1] (setting [8]) and 15 in assay [1] (setting [9]). Also, the “Plant response rating, Crabgrass, Large” value in assay [1] (setting [7]) was 10. Besides, the entries for the “Velvetleaf plant response rating” value in assay [2] (setting [6]), in assay [2] (setting [8]) and in assay [2] (setting [9]) were 15, 15 and 0, respectively. In addition, the “Plant response rating, Velvetleaf” value in assay [2] (setting [7]) stood at 35. The “Ducksalad plant response rating” value was found to be 0 in assay [3] (62 g ai/ha, scale 0 to 100); 0 in assay [3] (setting [10]); 0 in assay [3] (setting [11]). The “Plant response rating, Ducksalad” value in assay [3] (setting [12]) is 0. The “Barnyardgrass plant response rating” value in assay [4] (setting [13]), in assay [4] (setting [10]) and in assay [4] (setting [11]) was 0 throughout. The “Plant response rating, Barnyardgrass” value in assay [4] (setting [12]) amounted to 10. Besides, the “Foxtail, Giant plant response rating” value in assay [5] (setting [6]) came to 10; in assay [5] (setting [8]), 50; in assay [5] (setting [9]), 10. Besides, in assay [5] (setting [7]), the “Plant response rating, Foxtail, Giant” value came out at 25.

Regarding `C#CCNC(=O)c1cccc(NC(=O)c2sc(C(C)(C)C)nc2CC)c1` [Compound 319], the “Crabgrass, Large plant response rating” value in assay [1] (setting [6]) is 10; in assay [1] (setting [8]), 100; in assay [1] (setting [9]), 85. Besides, the “Plant response rating, Crabgrass, Large” value in assay [1] (setting [7]) is reported as 50. Besides, the “Velvetleaf plant response rating” value is given as 20 in assay [2] (setting [6]), 45 in assay [2] (setting [8]) and 35 in assay [2] (setting [9]). Also, the “Plant response rating, Velvetleaf” value in assay [2] (setting [7]) came to 30. The “Ducksalad plant response rating” value in assay [3] (62 g ai/ha, scale 0 to 100) was 0; in assay [3] (setting [10]) it was 0; in assay [3] (setting [11]), 45. The “Plant response rating, Ducksalad” value in assay [3] (setting [12]) is listed as 85. For the same compound, the entries for the “Barnyardgrass plant response rating” value in assay [4] (setting [13]), in assay [4] (setting [10]) and in assay [4] (setting [11]) were 0, 25 and 50, respectively. For the same compound, the “Plant response rating, Barnyardgrass” value in assay [4] (setting [12]) was determined as 65. The “Foxtail, Giant plant response rating” value in assay [5] (setting [6]) was determined as 0; in assay [5] (setting [8]) it was 80; in assay [5] (setting [9]), 55. In addition, the “Plant response rating, Foxtail, Giant” value in assay [5] (setting [7]) was found to be 40.

As to `CCn1nc(C(C)(C)C)cc1C(=O)Nc1cccc(C(=O)NCCF)c1` [Compound 45], the “Plant response rating, Crabgrass, Large” value stood at 80 in assay [1] (setting [6]) and 90 in assay [1] (setting [7]). The “Crabgrass, Large plant response rating” value in assay [1] (setting [14]) was 55; in assay [1] (setting [15]), 75. In addition, the “Plant response rating, Velvetleaf” value in assay [2] (setting [7]) amounted to 65. Moreover, the “Velvetleaf plant response rating” value is reported as 25 in assay [2] (setting [14]) and 65 in assay [2] (setting [15]). Besides, the “Ducksalad plant response rating” value in assay [3] (setting [13]) and in assay [3] (setting [16]) was 0 each time. Besides, the “Plant response rating, Ducksalad” value in assay [3] (setting [17]) and in assay [3] (setting [12]) was 60 throughout. Besides, the “Barnyardgrass plant response rating” value was determined as 25 in assay [4] (setting [13]) and 30 in assay [4] (setting [16]). For the same compound, the “Plant response rating, Barnyardgrass” value in assay [4] (setting [17]) is reported as 60; in assay [4] (setting [12]) it was 80. Besides, the entries for the “Plant response rating, Foxtail, Giant” value in assay [5] (setting [6]) and in assay [5] (setting [7]) were 90 and 95, respectively. Also, the “Foxtail, Giant plant response rating” value was 75 in assay [5] (setting [14]) and 100 in assay [5] (setting [15]).

Regarding `CCn1nc(C(C)(C)C)cc1C(=O)Nc1cccc(OCCCF)c1` [Compound 138], the “Crabgrass, Large plant response rating” value in assay [1] (setting [6]) was found to be 20; in assay [1] (setting [14]), 70; in assay [1] (setting [8]), 90. The “Plant response rating, Crabgrass, Large” value in assay [1] (setting [7]) is 30. Also, the results for the “Velvetleaf plant response rating” value in assay [2] (setting [6]), in assay [2] (setting [8]) and in assay [2] (setting [9]) were 20, 50 and 20, respectively. In addition, the “Plant response rating, Velvetleaf” value in assay [2] (setting [7]) worked out at 60. Also, the “Ducksalad plant response rating” value in assay [3] (setting [13]) was 0; in assay [3] (setting [10]), 20; in assay [3] (setting [11]), 55. Further, the “Plant response rating, Ducksalad” value in assay [3] (setting [12]) stood at 70. The “Barnyardgrass plant response rating” value is recorded as 0 in assay [4] (setting [13]), 0 in assay [4] (setting [16]) and 15 in assay [4] (setting [11]). In assay [4] (setting [12]), the “Plant response rating, Barnyardgrass” value is recorded as 30. Moreover, the “Foxtail, Giant plant response rating” value turned out to be 20 in assay [5] (setting [6]), 30 in assay [5] (setting [14]) and 90 in assay [5] (setting [8]). In addition, the “Plant response rating, Foxtail, Giant” value in assay [5] (setting [7]) came to 35.

Take `CCN(C(C)=O)C(=O)c1ccc(F)c(NC(=O)c2cc(C(C)(C)C)nn2CC)c1` [Compound 413]: the “Crabgrass, Large plant response rating” value in assay [1] (setting [6]) came to 10; in assay [1] (setting [8]), 70; in assay [1] (setting [9]), 40. In addition, the “Plant response rating, Crabgrass, Large” value in assay [1] (setting [7]) came out at 15. Moreover, the “Velvetleaf plant response rating” value was found to be 40 in assay [2] (setting [6]), 35 in assay [2] (setting [8]) and 35 in assay [2] (setting [9]). Further, the “Plant response rating, Velvetleaf” value in assay [2] (setting [7]) came to 55. Also, the “Ducksalad plant response rating” value is on record as 15 in assay [3] (62 g ai/ha, scale 0 to 100); 45 in assay [3] (setting [10]); 70 in assay [3] (setting [11]). Moreover, in assay [3] (setting [12]), the “Plant response rating, Ducksalad” value amounted to 70. Besides, the “Barnyardgrass plant response rating” value is reported as 0 in assay [4] (setting [13]), 25 in assay [4] (setting [10]) and 70 in assay [4] (setting [11]). Moreover, the “Plant response rating, Barnyardgrass” value in assay [4] (setting [12]) is given as 80. Moreover, the “Foxtail, Giant plant response rating” value is given as 10 in assay [5] (setting [6]), 90 in assay [5] (setting [8]) and 65 in assay [5] (setting [9]). In addition, in assay [5] (setting [7]), the “Plant response rating, Foxtail, Giant” value is 35.
